Reference: patent US20110039762A1, “TARGETED ANTIMICROBIAL MOIETIES” (C3 JIAN, INC., priority 2009, published 2011)
≈ marks a conversion by molar mass, not a printed value. Peptide text beside a SMILES is read from it.

What was measured:
[1] = system: BHK-21 (ATCC CRL-10) fibroblasts; assay: Cytotoxicity, Promega CellTiterGlo assay; assay type: cell-based, hamster
Method: Streptococcus oralis ATCC 10557, Streptococcus gordonii (Challis), Streptococcus sanguinis (NY101), Streptococcus mitis ATCC 903, Streptococcus salivarius ATCC 13419 and S. mutans wild-type UA140 and JM11 (spectinomycin-resistant) strains were grown in Todd-Hewitt (TH) broth 37° C. in an anaerobic atmosphere of 80% N2, 10% CO2, and 10% H2. BHK-21 (ATCC CRL-10) fibroblasts were propagated in DMEM with 10% FBS, 1 mM sodium pyruvate, 100 units/mL penicillin G, and 100 μg/mL streptomycin at 37° C. with 5% CO2. Cells were detached with 0.25% trypsin and subcultured as recommended by the supplier.
The effect of RB and C16-RB on […] fibroblasts was ascertained by utilizing the Promega CellTiterGlo assay, as described by the manufacturer. Briefly, fibroblasts were grown to confluence, detached, and seeded to ˜5,000 cells per well in a 96-well opaque walled, clear bottom 96-well plate (Nunc International). For long-term dark toxicity, cells were allowed to attach to for 18 h before the culture medium was replaced with medium plus serially-diluted RB or C16-RB (200 μM to 390 nM) or medium alone. After 18-24 h, equal volume Cell Titer Glo reagent was added to each well and mixed. Luciferace activity was then quantified to measure cell viability (Varian Fluorometer in Biolumenescence mode). To measure cytotoxicity after RB or C16-RB light exposure, cells were seeded at ˜10,000 cells per well and allowed to attach for 4 h. Cell growth medium was then replaced with RB or C16-RB containing medium, prior to exposure (a single well at a time) with blue light (400 mW/cm^2) suspended ˜3 cm from the well bottom. After exposure, cultures were disrupted with Cell Titer Glo and luciferase activity quantitated as above.

[2] = system: mixed biofilms of S. mutans JM11 plus S. oralis, S. gordonii, S. mitis, S. sanguinis, and S. salivarius; assay: Photodynamic antimicrobial assay against multispecies biofilms; assay type: cell-based; conditions: blue light
Method: To gauge C16-RB selectivity for S. mutans, similar assays were conducted against multispecies biofilms. Mixed biofilms were seeded by diluting (1:5000) a mixture of equal parts S. oralis, S. gordonii, S. mitis, S. sanguinis, S. salivarius, and S. mutans JM11 (made from overnight cultures) into TH with 1% sucrose, 1% glucose, and 1% mannose. Biofilms were incubated and treated as described above with the addition of vitamin C or potassium gluconate. After the addition of agent and 5 min incubation, biofilms were washed 1× with 1× PBS prior to light exposure. After PDT and biofilm disruption, survivors were plated on TH, and TH supplemented with 800 μg/mL spectinomycin, which allowed for quantitation of surviving total oral streptococci and surviving S. mutans, respectively.

S. mutans UA140 biofilms = assay: Photodynamic antimicrobial assay against single-species biofilms; assay type: cell-based, Streptococcus mutans; conditions: 5 μM, dark controls
Method: To evaluate C16-RB against monoculture biofilms, S. mutans UA140 was grown overnight in TH prior to inoculation for biofilm formation. For biofilms, 1:5000 dilution of overnight culture was made into TH with 1% sucrose in 2 mL centrifuge tubes (200 μL volume) and grown 24 h under anaerobic conditions. After incubation, biofilms were treated for 5 min with 5 or 25 μM C16-RB or 5 μM RB in 1× PBS, or PBS alone, followed by removal of supernatant and exposure to 5 min blue light (emission 400-550 nm, power 400 mW/cm^2) from an Astralis 7 (Ivoclar Vivodent, Austria) handheld LED commonly used as a dental curing light. The light source was suspended 4 cm from the tube bottom (even with the mouth of the tube). A duplicate set of samples were left covered to serve as dark controls. After treatment, biofilms were mechanically disrupted and plated to determine cfu/mL.

S. mutans [3] = assay type: cell-based, Streptococcus mutans
S. epidermidis [4] = assay: Post-antibiotic effect assay (growth retardation after 10 min exposure); assay type: cell-based, Staphylococcus epidermidis; conditions: S. epidermidis monoculture, peptide 10 min, then fresh medium
Method: (§1) The activity and selectivity of MH-STAMPs after a 10 min incubation was determined by growth retardation experiments against targeted and untargeted bacteria in monocultures, as described previously (Id.). Cells from overnight cultures were diluted to ˜5×10^6 cfu/mL in MH (or TH with 1% sucrose for S. mutans), normalized by OD600 0.05-0.1 and seeded to 96-well plates. Cultures were then grown under the appropriate conditions for 2 h (3 h for S. mutans) prior to the addition of peptides for 10 min. Plates were then centrifuged at 3000×g for 5 min, the supernatants discarded, fresh medium returned (MH or TH without sucrose for S. mutans), and incubation resumed. Bacterial growth after treatment was then monitored over time by OD600.

P. aeruginosa [5] = assay type: cell-based, Pseudomonas aeruginosa
Method: (§2) Typically, the in vitro antimicrobial activity of antimicrobial agents is tested using standard NCCLS bacterial inhibition assays, or MIC tests (see, National Committee on Clinical Laboratory Standards “Performance Standards for Antimicrobial Susceptibility Testing,” NCCLS Document M100-S5 Vol. 14, No. 16, December 1994; “Methods for dilution antimicrobial susceptibility test for bacteria that grow aerobically-Third Edition,” Approved Standard M7-A3, National Committee for Clinical Standards, Villanova, Pa.).
(§3) Briefly, ˜1×10^5 cfu/mL bacteria were diluted in TH (S. mutans), or Mueller-Hinton (MH) broth (all other organisms) and distributed to 96-well plates. Serially-diluted (2-fold) peptides were then added and the plates incubated at 37° C. for 18-24 h. […] All experiments were conducted 10 times.

E. coli [6] = assay type: cell-based, Escherichia coli
Method: as §2, §3

S. epidermidis [7] = assay type: cell-based, Staphylococcus epidermidis
Outline: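 Broth microdilution per NCCLS: ~1×10^5 cfu/mL organisms in Mueller-Hinton broth with 2-fold serial dilutions of peptide. Incubated 37 °C for 18–24 h; MIC read as lowest inhibitory concentration, 10 replicate experiments.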

panel of bacteria = assay: General antimicrobial activity by MIC against a panel of bacteria; assay type: cell-based; conditions: panel of bacteria (Table 19)
Method: as §3

P. aeruginosa [8] = assay: Post-antibiotic effect assay (growth retardation after 10 min exposure); assay type: cell-based, Pseudomonas aeruginosa; conditions: P. aeruginosa monoculture, peptide 10 min, then fresh medium
Method: as §1

[9] = system: Mixed planktonic populations of P. aeruginosa, E. coli, S. epidermidis, and S. mutans; assay: Microbial population shift assay; assay type: cell-based; conditions: 10 μM peptide, 24 h
Method: Peptide (10 μM) or mock-treatment (1× PBS) was then added and samples were incubated at 37° C. for 24 h under anaerobic conditions (80% N2, 15% CO2, 5% H2). […] Plates were then incubated 37° C. under aerobic conditions (TH plates were incubated anaerobically) and colonies counted after 24 h to determine survivors. […] Gram stains and direct microscopic observation (from select isolated colonies) were undertaken to confirm species identity (data not shown). The detection limit of the assay was 200 cfu/mL.

E. coli [10] = assay: Post-antibiotic effect assay (growth retardation after 10 min exposure); assay type: cell-based, Escherichia coli; conditions: E. coli monoculture, peptide 10 min, then fresh medium
Method: as §1

S. aureus = assay: as above; assay type: cell-based, Staphylococcus aureus; conditions: S. aureus monoculture, peptide 10 min, then fresh medium
Method: as §1

[11] = system: Klebsiella pneumoniae KAY 2026; assay type: cell-based
Method: (§4) Aerobic Gram-negative organisms were grown in Lauri-Bertaini (LB) broth and Gram-positive bacteria in Brain-heart infusion (BHI) broth. Streptococcus mutans JM11 (spectinomycin resistant, UA140 background) was grown in Todd-Hewitt (TH) broth under anaerobic conditions (80% N2, 15% CO2, 5% H2) at 37° C. Merritt et al. (2005) J Microbiol Meth., 61: 161-170. All bacteria were grown overnight to an OD600 of 0.8-1.0 prior to appropriate dilution and antimicrobial testing.
as §3

[12] = system: Staphylococcus aureus Newmann; assay type: cell-based
Method: as §4, §3

S. mutans [13] = assay: Post-antibiotic effect assay (growth retardation after 10 min exposure); assay type: cell-based, Streptococcus mutans; conditions: S. mutans monoculture, peptide 10 min, then fresh medium
Method: as §1

What does the source list for O=C1OC2(c3cc(I)c(O)c(I)c3Oc3c2cc(I)c(O)c3I)c2c(Cl)c(Cl)c(Cl)c(Cl)c21 [RB, rose bengal]?
light-dependent (photo-associated) toxicity ([1]; BHK cells, blue light): light-dependent toxicity was observed; IC50 ([1]; BHK, 5 min dark): > 100 µM; photodynamic antimicrobial activity, selectivity ([2]; mixed biofilm): strong indiscriminant photodynamic antimicrobial effects; ratio of surviving S. mutans:non-cariogenic streptococci cfu ([2]; plus potassium gluconate): ~1; decrease in cfu/mL (S. mutans UA140 biofilms): appreciable decreases in cfu/mL were not observed

How did the MIC (S. mutans [3]) turn out when CC[C@H](C)[C@H](NC(=O)[C@@H](N)Cc1ccccc1)C(=O)N[C@@H](CCCNC(=N)N)C(=O)N[C@@H](CCCCN)C(=O)N[C@@H](Cc1ccccc1)C(=O)N[C@@H](CC(C)C)C(=O)N[C@@H](CCCCN)C(=O)N[C@@H](CCCCN)C(=O)N[C@@H](Cc1c[nH]c2ccccc12)C(=O)N[C@@H](CC(C)C)C(=O)N[C@@H](CC(C)C)C(N)=O [BD2.20] (H-FIRKFLKKWLL-NH2; N-terminus assumed) was run?
The MIC was 2.86 ± 0.60 µM (≈ 4.26 µg/mL).

And the “bacterial growth (OD600) after treatment” value (S. epidermidis [4])?
The value was “inhibited”.

And the MIC (P. aeruginosa [5])?
The MIC was 14.4 ± 4.40 µM (≈ 21.5 µg/mL).

What about the MIC (E. coli [6]) of the same compound?
The MIC was 5.47 ± 1.41 µM (≈ 8.16 µg/mL).

And the MIC (S. epidermidis [7])?
Its MIC is 5.11 ± 1.58 µM (≈ 7.62 µg/mL).

And the “general antimicrobial activity by MIC” value (panel of bacteria)?
The value was “robust MICs”.

What about the “bacterial growth (OD600) after treatment” value (P. aeruginosa [8]) of the same compound?
Its value is “robust antimicrobial activity”.

And the “recoverable (surviving) cfu/mL” value ([9]; E. coli in mixed culture)?
Its value is “significant loss of recoverable cfu/mL”.

What about the “recoverable (surviving) cfu/mL” value ([9]; P. aeruginosa in mixed culture) of the same compound?
Its value is “significant loss of recoverable cfu/mL”.

What about the “recoverable (surviving) cfu/mL” value ([9]; S. epidermidis in mixed culture) of the same compound?
The value was “significant loss of recoverable cfu/mL”.

And the “recoverable (surviving) cfu/mL” value ([9]; S. mutans in mixed culture)?
Its value is “significant loss of recoverable cfu/mL”.

What about the “bacterial growth (OD600) after treatment” value (E. coli [10]) of the same compound?
Its value is “inhibited”.

What about the “bacterial growth (OD600) after treatment” value (S. aureus) of the same compound?
Its value is “inhibited”.

And the MIC [11]?
The MIC was 2.98 ± 0.47 µM (≈ 4.44 µg/mL).

And the MIC [12]?
Its MIC is 5.625 ± 1.29 µM (≈ 8.39 µg/mL).

What about the “bacterial growth (OD600) after treatment” value (S. mutans [13]) of the same compound?
The value was “robust antimicrobial activity”.
